Data from article PMC3628605, “Glucose-6-phosphate dehydrogenase regulation in the hepatopancreas of the anoxia-tolerant marine mollusc, Littorina littorea” (PeerJ, 2013).

Columns and labels:
[1] = tested on: T1, G6PDH, hepatopancreas, aerobic control (high phosphate form); experiment: spectrophotometric NADPH production at […] nm; format: biochemical, Littorina littorea; conditions: pH 8.0, 50 mM Tris-HCl, 22 °C
T1 construct: gene G6PD; native enzyme in Sephadex G-50 filtered hepatopancreas extract of aerobic control snails (bought at Kowloon Market, Ottawa); serine-phosphorylated, high phosphate form; not purified for kinetics

[2] = tested on: T2, G6PDH, hepatopancreas, 24 h anoxic (low phosphate form); experiment: spectrophotometric NADPH production at […] nm; format: biochemical, Littorina littorea; conditions: pH 8.0, 50 mM Tris-HCl, 22 °C
T2 construct: gene G6PD; native enzyme in Sephadex G-50 filtered hepatopancreas extract of 24 h anoxic snails; low phosphate form, same gene product as P1; not purified for kinetics

| SMILES | Km ([1]; optimal NADP+ (1.0 mM)) [µM] | Km ([2]; optimal NADP+ (1.0 mM)) [µM] | Km ([1]; optimal G6P (4 mM)) [µM] | Km ([2]; optimal G6P (4 mM)) [µM] |
| --- | --- | --- | --- | --- |
| O=P(O)(O)OC[C@H]1OC(O)[C@H](O)[C@@H](O)[C@@H]1O (stereo partly shown) [G6P] | 97 ± 6 | 60 ± 3 | – | – |
| NC(=O)c1ccc[n+]([C@@H]2O[C@H](COP(=O)(O)OP(=O)(O)OC[C@H]3O[C@@H](n4cnc5c(N)ncnc54)[C@H](OP(=O)(O)O)[C@@H]3O)[C@@H](O)[C@H]2O)c1 [NADP^+] | – | – | 117 ± 6 | 115 ± 8 |
